Test results as given in patent US12503469B2, “Forms of methyl {4,6-diamino-2-[1-(2-fluorobenzyl)-1H-pyrazolo[3-4-b]pyridino-3-yl]pyrimidino-5-yl} methyl carbamate” (Adverio Pharma GmbH, priority 2013, dated 2025).

Assay: Solid-state stability of the forms of the compound of formula (I)
Type: physicochemical

SMILES	thermodynamic stability of the form (between 0° C. and 80° C.)	stability of the amorphous form against crystallization (room temperature)
COC(=O)N(C)c1c(N)nc(-c2nn(Cc3ccccc3F)c3ncccc23)nc1N [Modification I, methyl {4,6-diamino-2-[1-(2-fluorobenzyl)-1H-pyrazolo[3,4-b]pyridino-3-yl]pyrimidino-5-yl}methylcarbamate]	thermodynamically stable form between 0 °C and 80 °C	
COC(=O)N(C)c1c(N)nc(-c2nn(Cc3ccccc3F)c3ncccc23)nc1N [amorphous form, methyl {4,6-diamino-2-[1-(2-fluorobenzyl)-1H-pyrazolo[3,4-b]pyridin-3-yl]pyrimidin-5-yl}methylcarbamate]		can exist at room temperature, but crystallizes very quickly
